From US11167012B2, “Peptide inhibition of CCR3-mediated diseases or conditions” (The Board of Trustees of the University of Illinois, priority 2015, dated 2021) come the findings set out here.

In assay [1] the test system is ERK1/2 phosphorylation. The experiment in a line: Signal transduction assay, Western blotting of phospho-ERK1/2 in AML14.3D10-CCR3 cells. In kind it is cell-based, human. The procedure: Phospho-ERK was detected using a specific antibody. The membrane was stripped and reprobed for total ERK1/2 as loading control. Immunoblots were quantified by densitometry using ImageJ. PD: PD184161, MEK inhibitor.
AML14.3D10-CCR3 cells were serum starved for 16 hours. Cells were pretreated with vehicle control, R3-2-1 or PD184161 for 30 minutes at 37° C., and subsequently stimulated with 8 nM CCL5 or CCL11 for 2 minutes. Stimulation was stopped by adding ice cold PBS. Cells were centrifuged and lysed in RIPA buffer containing protease and phosphatase inhibitors. Cell lysates were resolved on a 12% SDS-PAGE gel (10 μg/lane), transferred to PVDF membrane and blocked in 5% milk. Phospho-ERK1/2 was detected using rabbit monoclonal antibody (clone D13.14.4E, Cell Signaling Technology, Danvers, Mass.) and secondary goat anti-rabbit IgG-HRP (Santa Cruz Biotechnology, Dallas, Tex.). As a loading control, the membrane was subsequently stripped and re-probed with an antibody against total ERK1/2 (clone 127F5, Cell Signaling Technology).
Concurrent to ligand binding and activation, CCR3 undergoes ligand-induced desensitization and internalization (Zimmermann, et al. (1999) J. Biol. Chem. 274:12611-12618). As part of the desensitization process, CCR3 is degraded. This is thought to occur via β-arrestin recruitment to phosphorylated CCR3 and subsequent sequestration of the receptor into endosomal compartments, eventually leading to degradation. β-arrestin signaling is central in this process and is characterized by a late activation of signaling pathways such as MAPK/ERK1/2, in contrast to acute activation by G proteins. […] Therefore, the R3-2-1 peptide is a biased antagonist in that it inhibits the […] of CCL11 ligand-induced β-arrestin signaling, whereas the small molecule inhibitors are unbiased antagonists.
(In general: A western blot detects proteins with antibodies after separation by electrophoresis.)

For assay [2], the system named is eosinophil recruitment into the esophageal epithelium. The experiment in a line: Mouse model of EoE, oxazalone-challenged L2-IL5 transgenic mice. The assay is classed as in vivo. The settings on record: i.v., 24 hours after last OXA challenge. On the procedure:
Skin sensitized L2-IL5 transgenic mice received topical esophageal oxazalone (OXA) challenges by gavage (i.e.) on days 5, 8 and 12 (FIG. 5A). R3-2-1 peptide nanoparticles, control peptide (R3-2-3) or CCR3 inhibitor UCB35625 (UCB) were given immediately before on days 5, 8, 10 and 12 (FIG. 5A). Esophageal eosinophilia was assessed 24 hours after the last OXA challenge and treatment (day 13). […] Error bars represent SEM.
Mice were treated i.v. with R3-2-1 peptide, scrambled R3-2-3 control peptide ([…]-PEG27-NH2; SEQ ID NO:24), or the allosteric non-selective CCR3 inhibitor, UCB35625. Eosinophil recruitment into the esophageal epithelium was assessed 24 hours after the last OXA challenge by counting eosinophils in 9 high power fields (hpf) covering the total esophagus or 3 hpf covering the distal esophagus.

The target of assay [3] is T1, CCR3 (Homo sapiens, UniProt P51677).
T1 sequence (P51677 1-355): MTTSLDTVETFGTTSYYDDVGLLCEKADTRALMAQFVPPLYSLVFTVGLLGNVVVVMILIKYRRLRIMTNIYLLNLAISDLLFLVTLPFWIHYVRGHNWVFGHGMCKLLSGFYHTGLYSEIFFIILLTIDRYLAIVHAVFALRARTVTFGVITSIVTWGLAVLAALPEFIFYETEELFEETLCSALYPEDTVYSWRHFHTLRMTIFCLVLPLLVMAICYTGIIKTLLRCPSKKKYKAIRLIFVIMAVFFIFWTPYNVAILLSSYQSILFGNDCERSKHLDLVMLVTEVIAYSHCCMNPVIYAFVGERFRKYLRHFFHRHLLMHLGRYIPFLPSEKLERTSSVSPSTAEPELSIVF
The assay is described as follows: NMR (13C HSQC) evaluation of binding to CCR3 membrane preparations. Also noted: expressed in transfected cells; host or cells: 4DE4 mouse pre-B cell lymphoma line. The conditions noted are these: 10 μM R321, 1 μM CCL11, CCR3 membrane preps 0.25 mg/ml. On the procedure:
FIG. 6A to FIG. 6E show NMR evaluation of the binding of R3-2-1 and CCL11/eotaxin-1 to CCR3 membrane preparations. ^13C HSQC spectra of ^13C-reductively methylated CCR3 membrane preps (0.25 mg/ml) were recorded with 1 μM CCL11 and 10 μM R321. […] Black arrows indicate the differences in chemical shifts.
Ligand binding to GPCR induces conformational transitions in the receptor that activate G-proteins and β-arrestin recruitment. […] Because R3-2-1 is an analog of the second transmembrane helix of CCR3, it is expected that R3-2-1 competes with the native helix 2 for binding to helices 1 and 3. Binding to helix 3 may disrupt the structure and orientation of the DRY motif in intracellular loop 2, inhibiting G-proteins.

In assay [4] the target is T1, CCR3. The assay is described as follows: Chemotaxis assay (Transwell), blood eosinophils. In kind it is cell-based. Also noted: host or cells: AML14.3D10-CCR3 (eosinophilic myelocytic cell line, kept under G418). The settings on record: for IC90: blood eosinophils, 4 hours. The text has this: Blood eosinophils were purified from anti-coagulated blood drawn from mild allergic asthmatic subjects. Peripheral blood was subjected to density gradient centrifugation over FICOLL-PAQUE® Plus (GE Healthcare, Pittsburgh, Pa.) media to obtain a pellet containing erythrocytes and granulocytes. After erythrocyte lysis via hypotonic shock, eosinophils were purified by negative selection using a cocktail of antibody-conjugated magnetic beads against non-eosinophils (Miltenyi Biotec, Auburn, Calif.). The eosinophils were resuspended in X-VIVO 10 without phenol red. The purity and viability of the eosinophils obtained was routinely >97% as assessed by Hema III and trypan blue staining, respectively.
Cell migration was determined using a 96-well TRANSWELL® system (Corning, Tewksbury, Mass.). Briefly, 200 μl chemoattractant or control medium was added to the lower chamber while 100 μl cells were added to the upper chamber. The two chambers were separated by a polycarbonate filter with 5 μm pores. For AML14.3D10-CCR3 cells, 2×10^5 cells/well were resuspended in RPMI-1640+0.1% BSA and allowed to migrate for 4 hours at 37° C. […] Migrated cells were counted using a Beckman QUANTA SC flow cytometer. All experiments were performed in duplicate. Checkerboard analysis was done to distinguish chemotaxis from chemokinesis.
Primary eosinophils and the stable CCR3+eosinophilic myelocytic cell line, AML14.3D10-CCR3 (Daugherty, et al. (1996) J. Exp. Med. 183:2349-2354) undergo CCR3-mediated chemotaxis induced by multiple chemokines including eotaxin/CCL11, RANTES/CCL5, MCP-4/CCL13, and MEC/CCL28 (Daugherty, et al. (1996) J. Exp. Med. 183:2349-2354; Pan, et al. (2000) J. Immunol. 165:2943-2949). […] In addition, R3-2-1 inhibits chemotaxis of both AML14.3D10-CCR3 and blood eosinophils induced by CCL11/Eotaxin-1, CCL24/Eotaxin-2, and CCL26/Eotaxin-3 in a dose-dependent fashion (Table 3).

Each structure is given as a SMILES string. “Also recorded” adds a separate entry of the source. Where a SMILES comes first, the peptide text is derived from it. The star is where a group is joined. X1 = NC(=O)CCOCCOCCOCCOCCOCCOCCOCCOCCOCCOCCOCCOCCOCCOCCOCCOCCOCCOCCOCCOCCOCCOCCOCCOCCOCCOCCOCCOCCN*

By IC90 is commonly meant the point of the concentration-response curve where the effect stands at 90%. Take `CC[C@H](C)[C@H](NC(=O)[C@H](Cc1c[nH]c2ccccc12)NC(=O)[C@H](Cc1ccccc1)NC(=O)[C@@H]1CCCN1C(=O)[C@H](CC(C)C)NC(=O)[C@@H](NC(=O)[C@@H](NC(=O)[C@H](CC(C)C)NC(=O)[C@H](Cc1ccccc1)NC(=O)[C@H](CC(C)C)NC(=O)[C@@H](N)CC(C)C)C(C)C)[C@@H](C)O)C(=O)N[C@@H](Cc1c[nH]cn1)C(=O)N[C@@H](Cc1ccc(O)cc1)C(=O)N[C@H](C(=O)N[C@@H](CCCNC(=N)N)C(=O)NCC(=O)N[C@@H](Cc1c[nH]cn1)C(=O)N[C@@H](CC(N)=O)C(=O)N[C@@H](Cc1c[nH]c2ccccc12)C(=O)N[C@H](C(=O)N[C@@H](Cc1ccccc1)C(=O)NCC(=O)N[C@@H](Cc1c[nH]cn1)C(=O)N[C@@H](CC(=O)O)C(=O)N[C@@H](CC(=O)O)C(=O)N[C@@H](CC(=O)O)C(=O)NCCOCCOCCOCCOCCOCCOCCOCCOCCOCCOCCOCCOCCOCCOCCOCCOCCOCCOCCOCCOCCOCCOCCOCCOCCOCCOCCOCCOCCC(N)=O)C(C)C)C(C)C` [Peptide R3-2-1] (H-LLFLVTLPFWIHYVRGHNWVFGHDDD-X1; N-terminus assumed): in assay [1] (10 μM, CCL11-induced), the “acute (2-5 minutes) and late (30 minutes) phase phosphorylation of ERK1/2” value is “inhibits only acute phosphorylation of ERK1/2”. In addition, the “inhibition of ERK1/2 phosphorylation induced by RANTES and eotaxin” value in assay [1] (2 and 10 μM, 8 nM CCL5 or CCL11 for 2 minutes) is recorded as “inhibits activation of the MAPK pathway; also recorded: attenuated”. For the same compound, the “eosinophil recruitment into distal and total esophageal epithelium” value in assay [2] is “significantly blocked eosinophil recruitment; also recorded: significantly reduced eosinophil recruitment”. In addition, the “binding to CCR3 by NMR chemical shift changes” value in assay [3] is on record as “chemical shift changes indicative of binding”. In addition, the “inhibition of chemotaxis of blood eosinophils” value in assay [4] (2, 10 or 50 μM) is on record as “similarly able to inhibit chemotaxis of blood eosinophils”. Further, in assay [4] (CCL11-, CCL24-, CCL26-induced chemotaxis, summary of Table 3), the “IC50 for inhibition of chemotaxis, in words” value is on record as “low nanomolar range”. The results for the IC90 in assay [4] (chemotaxis to CCL11/Eotaxin-1 (12 nM)), in assay [4] (chemotaxis to CCL24/Eotaxin-2 (20 nM)) and in assay [4] (chemotaxis to CCL26/Eotaxin-3 (100 nM)) were 760 ± 100 nM, 730 ± 100 nM and 1100 ± 150 nM, respectively.
